The target in assay [1] is sheep testicular hyaluronidase (Ovis aries, UniProt A0ACI6NV18). Description: Hyaluronic acid hydrolysis assay. The format is biochemical. From the text:
A hyaluronic acid hydrolysis assay was used to assess the hyaluronidase inhibition properties of suramin sodium. Hyaluronidase is a critical sperm enzyme involved in cumulus penetration. Inhibition of this enzyme renders sperm incapable of transversing the egg vestments, thus impeding sperm-oocyte interaction and, ultimately, fertilization.
Hyaluronidase activity was quantitatively determined by measuring the extent of hyaluronic acid hydrolysis (i.e., the concentration of N-acetylglucosamine-reactive material formed from enzyme activity). Reaction mixtures containing the following were prepared: test compound (variable concentrations of suramin sodium); 0.1 M sodium acetate; 0.15 M sodium chloride; pH adjusted to 5.5; 7.2 units sheep testicular hyaluronidase (Sigma, Type III; H-2251) contained in an acetate buffer; 0.3 mg/ml hyaluronic acid (Sigma, from bovine vitreous humor; H-7630). The enzyme was preincubated with the test agent (1 mg/ml for screening purposes) for 10 minutes before starting the reaction by the addition of hyaluronic acid. The enzyme reaction was determined using the method of Aronson and Davidson (J. Biol. Chem. 241 437-40, 1967). […] The reaction product is determined calorimetrically with […] (Reissig et al., J. Biol. Chem. 217 959-966, […]) by measuring the absorbance at 545 nm.

In another assay the test system is rabbit sperm. As to the kind of experiment: Rabbit contraceptive efficacy, intravaginal application. The format is in vivo. As to the method: Semen was collected from New Zealand White (NZW) male rabbits with the aid of an artifical vagina, pooled and adjusted with a modified Tyrode's albumin lactate pyruvate (TALP) medium to 50 million motile sperm per milliliter. Ovulation was induced in females by injection of 200 IU of human chorionic gonadotropin (hCG) intravenously. Under the ex-vivo (in-vitro) mixing protocol, sperm were incubated with indicated suramin test compounds in a tube for 15 minutes at 37° C. prior to insemination (0.5 mL) as described in Anderson R. A., et al. J. Androl., 21: 862-875 (2000). […] Sperm-compound contact, in this case, took place in vivo, inside the vagina. Insemination and administration of the compound was performed with a flexible, 12 cm long polyurethane catheter. The main endpoints for both protocols were the number of implantation sites counted 11 days after insemination and pregnancy rate. Such sites were counted by visual inspection of the tubes.

The test system of assay [2] is HIV-1 IIIB. Description: Virus binding inhibition assay VBIA-IIIB in MT-2 cells. It is filed as cell-based. As to the method:
VBIAIIIB: MT-2 cells, compounds and virus (HIV-1 IIIB) were mixed together in 96-well plates and incubated for 2 h at 37° C. At the end of this incubation period, the 96-well plates were centrifuged for 10 minutes and approximately 175 μL of medium was removed using a multichannel pipettor and replaced with 175 μL of fresh media. […] Modulation of virus induced cytopathic effects was measured by determining percent reduction in optical density (O.D.) using an XTT (2,3-bis(2-methoxy-4-nitro-5-sulfophenyl)-5-[phenylamino)carbonyl]-2H-tetrazolium hydroxide) dye reduction assay. Virus-induced cytopathic effects and mechanical artifacts due to media removal were verified by microscopic observations (Anderson R. A., et al., J. Androl., 21: 862-875 (2000)). The results of this assay are provided herein.

Assay [3] concerns HIV-1 IIIB. Description: Viral entry inhibition, cell-free HIV-1 IIIB, CD4/coreceptor expressing HeLa cells. The format is cell-based. The following applies: Human immunodeficiency virus 1, IIIB.
For a further assay, the system named is HSV-2. Description: HSV plaque assay, HSV-2. It is filed as cell-based, HSV (type 2 strain 333). As to the method:
Evaluation of anti-HSV activity of suramin was based on the method described by Herold et al., J. Virol., 70: 3461-3469 (1996). The compound was serially diluted (1000 μg/ml to 1.0 μg/ml) in phosphate-buffered saline (PBS), and each dilution was mixed with each of two serial dilutions (10^−5 and 10^−6) HSV (type 2 strain 333). Working viral titers were […]. Samples (1 ml) of each mixture were plated in duplicate on washed and drained confluent monolayers of CaSki cells (a human cervical epithelial cell line, obtained from the American Type Culture Collection, Rockville, Md.) on the bottoms of 25 cm^2 flasks. Initial titer (indicated in the control cultures with no added test agent) in each culture was given as pfu/ml. The flasks were incubated for 2 hours, after which the medium (containing virus and test compound) was removed and the cells were washed with PBS. Cells were cultured for 3 days in medium 199, supplemented with 1% serum and 0.5% methyl cellulose that contained anti-HSV antibodies to prevent the formation of secondary plaques. Cells were stained with Giemsa for the counting of viral plaques by phase contrast microscopy. The viral titer was inferred from the number of plaques, after correction for dilutions. Values were corrected to a control titer 5×10^8 pfu/ml. Data were expressed as viral titer and as the percentage of plaques that are counted in control cell cultures (not exposed to test agent). […] The concentration of the compound that was required to reduce the viral titer by 50% (IC50) was estimated with curve-fitting software (TableCurve 2D, version 3.02) from plots of plaque-forming units (pfu) per ml as a function of concentration of the compound.

Converted amounts (≈) assume the structure as drawn.

Chain of sheep testicular hyaluronidase (A0ACI6NV18 entry or part of it): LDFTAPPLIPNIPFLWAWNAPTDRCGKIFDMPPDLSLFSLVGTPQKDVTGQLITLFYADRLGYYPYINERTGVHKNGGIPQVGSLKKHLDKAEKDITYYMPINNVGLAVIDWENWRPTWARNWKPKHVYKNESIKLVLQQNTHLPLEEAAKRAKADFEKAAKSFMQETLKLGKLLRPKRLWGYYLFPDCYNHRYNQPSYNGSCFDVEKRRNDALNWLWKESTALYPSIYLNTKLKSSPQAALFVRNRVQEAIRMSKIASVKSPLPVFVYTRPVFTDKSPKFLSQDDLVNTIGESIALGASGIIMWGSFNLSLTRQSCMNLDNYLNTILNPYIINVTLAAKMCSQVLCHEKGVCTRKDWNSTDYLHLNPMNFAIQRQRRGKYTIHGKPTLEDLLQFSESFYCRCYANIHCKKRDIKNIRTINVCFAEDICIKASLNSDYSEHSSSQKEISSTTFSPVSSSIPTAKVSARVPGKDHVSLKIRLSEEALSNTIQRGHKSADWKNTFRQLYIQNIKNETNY

`Cc1ccc(C(=O)Nc2ccc(S(=O)(=O)O)c3cc(S(=O)(=O)O)cc(S(=O)(=O)O)c23)cc1NC(=O)c1cccc(NC(=O)Nc2cccc(C(=O)Nc3cc(C(=O)Nc4ccc(S(=O)(=O)O)c5cc(S(=O)(=O)O)cc(S(=O)(=O)O)c45)ccc3C)c2)c1` [Suramin, 8,8′-(carbonylbis(imino-3,1-phenylenecarbonylimino(4-methyl-3,1-phenylene)carbonylimino))bis-1,3,5-naphthalene trisulfonic acid]: the “Potency, Hyaluronidase (Hyaluronic Acid Hydrolysis)” value in assay [1] was “High”. In addition, the “inhibition (contraceptive), Vaginal Application” value in the assay on rabbit sperm (1.25% in Replens) stood at 100% inhibition. Moreover, in the assay with rabbit sperm (2%), the “inhibition, Vaginal Application” value is 44% at 2%. For the same molecule, the “inhibition, Vaginal Application Combo” value in the assay with rabbit sperm (2% suramin + 2% sorbitan mono laurate or 0.1% N-9) is listed as 100% inhibition at. Also, the “reduction in PR” value with rabbit sperm (5%, intravaginal administration) is 75% inhibition. Moreover, the “Potency, Contraception, rabbit inseminated sperm (Vaginal Application)” value in the assay on rabbit sperm (rabbit, in vivo) is given as “Moderate”. In addition, the “Potency, Vaginal Application Combo” value with rabbit sperm (rabbit, in vivo) is “High”. The “Potency, Vaginal Application, Replens” value with rabbit sperm (rabbit, in vivo) is on record as “High”. Also, the “Potency, HIV-1 VBIA-IIIb” value in the assay on HIV-1 IIIB [2] is listed as “High”. The half-inhibitory concentration (IC50) (commonly the concentration at which inhibition is half-maximal) in the assay with HIV-1 IIIB [2] (Human immunodeficiency virus 1, IIIB, MT2, 72 hours incubation, read-out: IC50 against IIIB, viral entry assay) amounted to 7.3 µg/mL (≈ 5.63 µM); in the assay with HIV-1 IIIB [3] (HeLa, 2 h-incubation, read-out: IC50 against IIIB, viral entry assay), 18.5 µg/mL (≈ 14.3 µM); with HIV-1 IIIB [3] (CD4/coreceptor expressing HeLa cells, incubation 2 hours, read-out: IC50, Cell-Free Strains IIIB) it was 18.5 µg/mL (≈ 14.3 µM); in the assay with HSV-2 (Human alphaherpesvirus 2, read-out: IC50 against HSV-2), 1 µg/mL (≈ 0.771 µM). In addition, in the assay on HSV-2, the “Potency, HSV-2 Plaque” value is recorded as “High”. In addition, in the assay with HSV-2 (Human alphaherpesvirus 2, 100 μg/mL, read-out: inhibition of viral infectivity, plaque assay), the inhibition (in general, the change of the read-out against control, counted positive when it falls) at 100 µg/mL was found to be 100%.

Source of the values: patent publication US8552064B2, “Suramin and derivatives thereof as topical microbicide and contraceptive” (Eastern Virginia Medical School, priority 2005, dated 2013).
